Data: patent US12171233B1, “Ethyl {[N′-(3-chlorophenyl)-N-(2,4-dichlorobenzoyl) carbamimidoyl]sulfanyl}acetate as an eco-friendly insecticidal agent against Spodoptera littoralis (Boisd.)” (priority 2023, dated 2024)
In brackets after ≈: the same amount, converted by molar mass. Where two headings read alike, the source gives them in different places.

Tested on: Spodoptera littoralis larvae (2nd and 4th instar)
Experiment: Insecticidal bioassay screening (castor leaf dip)
Assay type: in vivo
Settings: for LC50 (ppm) at 95% / LC90 (ppm) at 95%: after 72 h of treatment; for Toxicity index %: Diflubenzuron LC50 / compound LC50 x 100; for LC50: foliar
Protocol: In this experiment, castor leaves are immersed in each of the previously prepared concentrations of the components for 10 seconds and then left to dry for 60 minutes. Larvae of the second and fourth instars of each checked strain are prepared with treated leaves in gauze-covered glass containers for 72 hrs. An untreated control is made in which leaves are dipped in triton x-100 and distilled water only. Then the preserved leaves were removed & fresh, untreated leaves were provided for 72 hours. Three replicates (10 larvae each) were checked for each concentration. Daily inspection was carried out for all treatments and mortality percentages were recorded 3 days (72 hours) after treatment. The average mortality percentage was corrected employing Abbott's formula. The corrected mortality rate for each of the previously synthesized compounds is statistically calculated according to Finney (1970). Through this rate, the corresponding concentration test lines (LDP lines) are assessed. Fifty and ninety percent mortality are determined, and the regression values for the checked products were previously evaluated.

[1] = 2nd instar larvae of S. littoralis
[2] = 4th instar larvae of S. littoralis

Row | Structure (SMILES) | LC50 (ppm) at 95% [1] | LC90 (ppm) at 95% [1] | Toxicity index % (2nd instar larvae) | LC50 (ppm) at 95% [2] | LC90 (ppm) at 95% [2] | Toxicity index % (4th instar larvae) | effect on larval morphology (FIGS. 1A-1B) (S. littoralis larvae versus normal larvae (control)) | activity against Spodoptera littoralis (in words) (compared with reference insecticide Diflubenzuron) | LC50 (against Spodoptera littoralis under laboratory conditions (instar not given), read-out: LC50) | LC50 (Spodoptera littoralis)
1 | O=C(NC(=S)Nc1cccc(Cl)c1)c1ccc(Cl)cc1Cl [Compound 1, 2,4-dichloro-N-[(3-chlorophenyl)carbamothioyl]benzamide] | 211.4 ppm | 1913.2 ppm | 21.1% | 472.3 ppm | 4322.7 ppm | 30.5% | – | – | – | –
2 | CCOC(=O)CS/C(=N\c1cccc(Cl)c1)NC(=O)c1ccc(Cl)cc1Cl [Compound 2, Ethyl {[N′-(3-chlorophenyl)-N-(2,4-dichlorobenzoyl)carbamimidoyl]sulfanyl}acetate] | about 211.4 ppm | – | – | about 472.3 ppm | – | – | Morphological malformations | active against Spodoptera littoralis | 211 µg/mL | –
3 | O=C(NC(=O)c1c(F)cccc1F)Nc1ccc(Cl)cc1 [Diflubenzuron, reference compound] | 45.20 ppm | 520.0 ppm | 100% | 144.05 ppm | 1540.5 ppm | 100% | – | – | – | 45.2 µg/mL (≈ 145 µM)
